From doi:10.1101/2021.11.05.467463v1 (biorxiv, 2021) come the findings set out here.

For series [1] the following is noted: mouse, microsomes.
Series [2] is described as follows: physchem. Particulars: water.
Series [3] has as its target T1, PfPKG (Plasmodium falciparum, UniProt Q8I719). As to the kind of experiment: in vitro PfPKG enzyme inhibition assay. The format is biochemical. To be noted: […] compound.
Series [4] concerns the target T1, PfPKG. As to the kind of experiment: in vitro PfPKG enzyme inhibition assay. The format is biochemical.
For series [5], the target named is CYP3A4 (Homo sapiens, UniProt P08684). As to the kind of experiment: in vitro CYP3A4 inhibition. In kind it is biochemical.
Series [6] deals with T1, PfPKG. As to the kind of experiment: in vitro PfPKG enzyme inhibition assay. The format is biochemical. To be noted: […] compound. This is another data set of the same source.

Each structure is given as a SMILES string. In brackets after ≈: the same amount, converted by molar mass.

T1 sequence (Q8I719 whole entry): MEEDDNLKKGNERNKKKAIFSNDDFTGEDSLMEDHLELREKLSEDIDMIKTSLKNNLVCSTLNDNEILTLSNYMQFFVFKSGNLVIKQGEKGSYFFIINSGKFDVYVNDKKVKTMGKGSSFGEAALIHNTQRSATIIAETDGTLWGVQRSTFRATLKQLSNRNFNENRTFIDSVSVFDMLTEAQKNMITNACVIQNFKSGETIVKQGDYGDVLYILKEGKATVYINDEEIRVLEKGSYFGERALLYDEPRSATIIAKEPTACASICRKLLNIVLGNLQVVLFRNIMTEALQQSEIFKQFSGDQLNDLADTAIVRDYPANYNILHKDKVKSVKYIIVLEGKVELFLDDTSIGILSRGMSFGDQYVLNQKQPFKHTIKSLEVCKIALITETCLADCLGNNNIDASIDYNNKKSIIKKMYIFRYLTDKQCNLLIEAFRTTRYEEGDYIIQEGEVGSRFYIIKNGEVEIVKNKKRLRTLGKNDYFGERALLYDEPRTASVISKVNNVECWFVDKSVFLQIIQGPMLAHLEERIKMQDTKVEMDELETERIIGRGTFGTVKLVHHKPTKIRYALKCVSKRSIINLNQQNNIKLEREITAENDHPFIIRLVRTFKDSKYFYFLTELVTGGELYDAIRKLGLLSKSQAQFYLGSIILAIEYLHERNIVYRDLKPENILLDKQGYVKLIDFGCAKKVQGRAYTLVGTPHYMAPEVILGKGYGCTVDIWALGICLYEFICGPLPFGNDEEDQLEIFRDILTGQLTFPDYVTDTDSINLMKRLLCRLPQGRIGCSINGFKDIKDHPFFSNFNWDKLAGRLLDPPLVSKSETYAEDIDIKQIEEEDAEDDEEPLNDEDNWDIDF
Sequence of CYP3A4 (P08684 2-503): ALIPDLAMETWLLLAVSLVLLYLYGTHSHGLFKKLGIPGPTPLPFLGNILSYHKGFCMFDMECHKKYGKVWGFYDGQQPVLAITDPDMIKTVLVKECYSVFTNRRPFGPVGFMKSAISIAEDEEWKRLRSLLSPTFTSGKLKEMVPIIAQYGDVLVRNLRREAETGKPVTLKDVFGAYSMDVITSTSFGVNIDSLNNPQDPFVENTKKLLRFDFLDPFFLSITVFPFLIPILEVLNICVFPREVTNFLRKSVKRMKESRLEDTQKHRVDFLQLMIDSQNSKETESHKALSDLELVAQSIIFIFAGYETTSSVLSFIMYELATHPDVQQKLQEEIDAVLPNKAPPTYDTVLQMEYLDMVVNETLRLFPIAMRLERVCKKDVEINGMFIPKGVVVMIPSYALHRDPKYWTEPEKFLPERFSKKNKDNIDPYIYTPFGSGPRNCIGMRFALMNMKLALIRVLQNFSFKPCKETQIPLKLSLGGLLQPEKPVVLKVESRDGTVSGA

`O=C(c1nccs1)N1CC[C@@H](Nc2nccc(-n3cc(C4CC4)nc3-c3ccccc3)n2)C1` [14a]: in series [1], the “MLM t1/2” value was less than 2 min. Further, the solubility – broadly, the concentration that dissolves in the medium under given conditions – in series [2] worked out at 92 µM (≈ 42.1 µg/mL).

With `Cc1cn(-c2ccnc(NC3CCCN(C(=O)c4nccs4)C3)n2)c(-c2ccccc2)n1` (racemic) [10d], the “% inh @ 1 μM” value in series [3] worked out at 4%.

On to `O=C(c1nccs1)N1CC[C@@H](Nc2nccc(-n3cc(C4CC4)nc3-c3cccc(Cl)c3)n2)C1` [14b], for which the “MLM t1/2” value in series [1] was less than 2 min. The compound also gave a solubility in series [2] of 28 µM (≈ 13.8 µg/mL).

For the compound `CN1CCC(c2cc(-c3ccc(F)cc3)c(-c3ccncc3)[nH]2)CC1` [compound 5, pyrrole 5], the half-inhibitory concentration (IC50) – broadly, the concentration at which inhibition is half-maximal – in series [4] came out at 22 nM.

Turning to `Cc1cn(-c2ccnc(N[C@H]3CCN(C(=O)c4nccs4)C3)n2)c(-c2ccccc2)n1` [10c], in series [3], the “% inh @ 1 μM” value came out at 4%.

Take `Cc1cn(-c2ccnc(NC3CCN(C(=O)c4nccs4)CC3)n2)c(-c2ccccc2)n1` [10e]: in series [3], the “% inh @ 1 μM” value is listed as 5%.

Turning to `Cc1cn(-c2ccnc(NCC3CCCN3C(=O)c3nccs3)n2)c(-c2ccccc2)n1` (racemic) [10f], the “% inh @ 1 μM” value in series [3] worked out at 3%.

In turn, `Cc1cn(-c2ccnc(N[C@@H]3CCN(C(=O)c4nccs4)C3)n2)c(-c2ccccc2)n1` [10a] showed an IC50 in series [5] of 940 nM.

Consider `Cc1cn(-c2ccnc(N[C@@H]3CCN(C(=O)c4nccs4)C3)n2)c(-c2ccccc2Cl)n1` [18b], for which, in series [6], the “% inhib @ 1 μM” value is 47%.
